Measurements as given in patent publication US10364256B2 (GlaxoSmithKline Intellectual Property Development Limited, priority 2015, dated 2019).

Columns and labels:
[1] = target: T1, Keap1 Kelch domain (321-609) / TAMRA-labeled 16mer NRF2 peptide (ETGE motif) (Homo sapiens, UniProt Q14145); assay: NRF2-Keap1 FP Assay (Keap1 Kelch fluorescence polarization); type: binding; details: 20 nM Keap1 (321-609), 8 nM Tamra labeled peptide
T1 construct: the Kelch domain (321-609) of Keap1 is used
Method in brief: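 Compound dilutions (3-fold) were incubated 1 hr at room temperature with 20 nM Keap1 Kelch (321-609) and 8 nM TAMRA-labeled ETGE 16mer peptide. Buffer was 50 mM Tris pH 8.0, 100 mM NaCl, 5 mM MgCl2, 1 mM DTT, 2 mM CHAPS, 0.005% BSA. Fluorescence polarization (mP) was normalized to controls and fitted with a four-parameter equation to give pIC50.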

[2] = system: NQO1 specific enzyme activity in BEAS-2B cells (marker for NRF2 activation); assay: BEAS-2B NQO1 MTT Assay; type: cell-based; details: Homo sapiens, compound incubated 48 hours, read-out: EC50 (NQO1 specific enzyme activity induction)
Method in brief: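 NQO1 specific activity induction is derived from the rate of MTT reduction (ΔOD/min, 570 nm, 30 min kinetic read) in crude lysates of BEAS-2B cells exposed to compound for 48 h. A 3-parameter fit gives EC50, reported as pEC50; part of each lysate goes to Cell Titer Glo.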

T1 sequence (Q14145 321-609): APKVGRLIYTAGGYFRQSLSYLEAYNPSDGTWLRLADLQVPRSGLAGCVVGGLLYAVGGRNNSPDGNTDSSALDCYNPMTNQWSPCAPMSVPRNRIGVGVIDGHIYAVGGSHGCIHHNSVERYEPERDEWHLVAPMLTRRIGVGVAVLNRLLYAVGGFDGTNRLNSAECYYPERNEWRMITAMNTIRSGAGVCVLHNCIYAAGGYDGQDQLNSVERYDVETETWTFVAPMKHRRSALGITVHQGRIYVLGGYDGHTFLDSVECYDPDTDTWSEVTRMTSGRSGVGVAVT

SMILES | IC50 [1] [nM] | EC50 [2] [nM]
CCC[C@@H]1CCCCN1C(=O)c1cccc(-c2cccc(-n3ncc(C(=O)O)c3C3CC3)c2)c1F [Example 54e, 5-Cyclopropyl-1-{3-[2-fluoro-3-((2-S)-2-propylpiperidine-1-carbonyl)phenyl]phenyl}-1H-pyrazole-4-carboxylic Acid] | 100 to 1000 | 100 to 1000
CCC[C@@H]1CCCCN1C(=O)c1cccc(-c2cccc(-n3ncc(C(=O)O)c3CCc3cn(C)nn3)c2)c1F [Example 55, (R)-1-(2′-Fluoro-3′-(2-propylpiperidine-1-carbonyl)-[1,1′-biphenyl]-3-yl)-5-(2-(1-methyl-1H-1,2,3-triazol-4-yl)ethyl)-1H-pyrazole-4-carboxylic Acid] | 10 to 100 | 1000 to 10000
CC(C)Oc1cccc(-c2cccc(-n3ncc(C(=O)O)c3C3CC3c3cn(C)nn3)c2)c1 (stereo not shown) [Example 59, 1-(3′-Isopropoxy-[1,1′-biphenyl]-3-yl)-5-(2-(1-methyl-1H-1,2,3-triazol-4-yl)cyclopropyl)-1H-pyrazole-4-carboxylic Acid] | 100 to 1000 | 1000 to 10000
CC1(C)CCc2cnn(-c3cccc(-c4cccc(-n5ncc(C(=O)O)c5C5CC5)c4)c3)c21 [Example 63, 5-Cyclopropyl-1-(3′-(6,6-dimethyl-5,6-dihydrocyclopenta[c]pyrazol-1(4H)-yl)-[1,1′-biphenyl]-3-yl)-1H-pyrazole-4-carboxylic Acid] | 100 to 1000 | 100 to 1000

Continued, in another order:

IC50 [1] [nM] | SMILES | EC50 [2] [nM]
100 to 1000 | CC1(C)CCc2cnn(-c3cccc(-c4cccc(-n5ncc(C(=O)O)c5C(F)(F)F)c4)c3)c21 [Example 250, 1-(3′-(6,6-Dimethyl-5,6-dihydrocyclopenta[c]pyrazol-1(4H)-yl)-[1,1′-biphenyl]-3-yl)-5-(trifluoromethyl)-1H-pyrazole-4-carboxylic Acid] | 100 to 1000
10 to 100 | C[C@@H]1CN(Cc2cccc(-c3cccc(-n4ncc(C(=O)O)c4[C@@H]4C[C@H]4c4cn(C)nn4)c3)c2)Cc2ccccc2O1 [Example 253] | 100 to 1000
10 to 100 | CCOC[C@@H]1CCCN1C(=O)c1cccc(-c2cccc(-n3ncc(C(=O)O)c3[C@@H]3C[C@H]3c3cn(C)nn3)c2)c1F [Example 267] | 100 to 1000
10 to 100 | CCOC[C@H]1CCCN1C(=O)c1cccc(-c2cccc(-n3ncc(C(=O)O)c3[C@@H]3C[C@H]3c3cn(C)nn3)c2)c1F [Example 268] | 100 to 1000
